Data published in US10610522B2, “Methods for retreating irritable bowel syndrome (IBS)” (Salix Pharmaceuticals, Inc., priority 2014, dated 2020).
Where “and” joins values, the source holds several entries; their conditions need not be identical. Identical values can stand only once.

Key:
cytochrome P450 2D6 = cytochrome P450 2D6 (Homo sapiens, UniProt P10635); experiment: In vitro cytochrome P450 inhibition; type: biochemical; conditions: 2 to 200 ng/mL
[1] = Crossover drug interaction study: oral cyclosporine 600 mg on pharmacokinetics of single-dose rifaximin 550 mg; type: in vivo, human
Description: Eligible subjects were healthy men and women 18 to 45 years of age. […] The 2 dosing periods were separated by 7 days. […] Subjects underwent a supervised fast overnight (for >8 hours) before dosing and for 4 hours after dosing, though water was permitted ad libitum. Subjects remained at the clinical research unit from Day 0 through the morning of Day 3, and from Day 7 through Day 10. A follow-up phone contact was made 3 (+1) days after discharge, which concluded their participation in the study. Study duration was up to 35 days, including a 21-day screening window, dosing on Day 1, a 7-day washout period, dosing on Day 8, discharge from the clinic on Day 10, and a 3 (+1) day follow-up period after discharge.

non-constipation IBS = experiment: Study 1 (TARGET 1): rifaximin 550 mg TID 14 days vs placebo in non-C IBS, 10-week follow-up; type: in vivo, human
Excerpt: A measure of efficacy is based on subjects' answers to the Weekly Subject Global Assessment (SGA) questions over the study duration in relation to their IBS symptoms.
Additionally subjects having a stool consistency score of <4 and at least a 1 point reduction in average daily IBS score were identified. […]
In TARGET 1 and 2, the primary endpoint was the proportion of patients who achieved adequate relief of IBS symptoms for at least 2 of 4 weeks during the month following 14 days of treatment. Adequate relief was defined as a response of “yes” to the following weekly Subject Global Assessment (SGA) question: “In regards to your IBS symptoms, compared to the way you felt before you started study medication, have you, in the past 7 days, had adequate relief of your IBS symptoms? [Yes/No]”
The key secondary endpoint was the proportion of patients who achieved adequate relief of IBS-related bloating for at least 2 of 4 weeks during the month following 2 weeks of treatment. Adequate relief of IBS-related bloating was defined as a response of “yes” to the following weekly (every 7 days) SGA question: “In regards to your IBS symptom of bloating, compared to the way you felt before you started study medication, have you, in the past 7 days, had adequate relief of your IBS symptom of bloating?
The trials examined a composite endpoint which defined responders by IBS-related abdominal pain and stool consistency measures. Patients were responders if they experienced a ≥30% decrease from baseline in abdominal pain for ≥2 weeks during the month following 2 weeks of treatment. […] Patients were monthly responders if they met criteria for BOTH abdominal pain and stool consistency ≥2 weeks per month. […] (See Table 60.)

IBS-D = experiment: Adverse reactions in three phase 3 placebo-controlled IBS-D studies, rifaximin 550 mg TID; type: in vivo, human
Excerpt: In two studies, 624 patients received only one 14-day treatment.
(These include adverse reactions that may be attributable to the underlying disease.)
The following includes adverse reactions regardless of causal relationship to drug exposure. Gastrointestinal Disorders: Abdominal distension, abdominal tenderness, constipation, diarrhea, dyspepsia, flatulence, vomiting

[2] = both sexes, human, plasma, oral
[3] = both sexes, human, plasma, oral, 550 mg
[4] = Study 1, at least 2 weeks during PEP
[5] = TARGET 1, month following two weeks of treatment, 550 mg TID, N = 309
[6] = 1650 mg/day, N = 952, three phase 3 placebo-controlled studies

Sequence of cytochrome P450 2D6 (P10635 whole entry): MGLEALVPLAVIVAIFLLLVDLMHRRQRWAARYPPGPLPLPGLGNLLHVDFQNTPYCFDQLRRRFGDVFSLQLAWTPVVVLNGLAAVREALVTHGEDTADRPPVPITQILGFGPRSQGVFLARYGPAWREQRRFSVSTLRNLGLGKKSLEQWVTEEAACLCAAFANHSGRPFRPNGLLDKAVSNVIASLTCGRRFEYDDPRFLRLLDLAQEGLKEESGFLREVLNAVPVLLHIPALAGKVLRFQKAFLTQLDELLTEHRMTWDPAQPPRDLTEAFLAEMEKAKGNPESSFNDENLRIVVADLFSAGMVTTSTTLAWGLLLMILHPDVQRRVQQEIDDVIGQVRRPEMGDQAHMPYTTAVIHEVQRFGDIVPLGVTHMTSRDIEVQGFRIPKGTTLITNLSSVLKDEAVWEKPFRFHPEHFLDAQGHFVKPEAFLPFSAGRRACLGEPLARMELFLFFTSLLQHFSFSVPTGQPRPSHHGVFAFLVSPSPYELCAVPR

In the case of `CO[C@H]1/C=C/O[C@@]2(C)Oc3c(C)c(O)c4c(O)c(c5c(nc6cc(C)ccn65)c4c3C2=O)NC(=O)/C(C)=C\C=C\[C@H](C)[C@H](O)[C@@H](C)[C@@H](O)[C@@H](C)[C@H](OC(C)=O)[C@@H]1C` [Rifaximin, (2S,16Z,18E,20S,21S,22R,23R,24R,25S,26S,27S,28E)-5,6,21,23,25 Pentahydroxy-27-methoxy-2,4,11,16,20,22,24,26-octamethyl-2,7-(epoxypentadeca-(1,11,13)trienimino) benzofuro (4,5-e) pyrido(1,2-a) benzimidazole-1,15(2H)-dione,25-acetate], the “Inhibition of cytochrome P450 2D6” value (cytochrome P450 2D6) is reported as “does not inhibit”, the Tmax [1, 2] is reported as 2 h and the half-life [1, 2] is reported as 6.61 h. It also gave an AUC(0-inf) [1, 3] of 2.53 ng·h/mL, a Cmax [1, 3] of 0.48 ng/mL and a Tmax [1, 3] of 1 h. For the same compound, the half-life [1, 3] was 2.86 h, the “Increase in rifaximin mean AUC on co-administration of cyclosporine” value ([1]; healthy subjects) was 124 fold and the “Increase in rifaximin mean Cmax on co-administration of cyclosporine” value ([1]; healthy subjects) was 83 fold. For the same compound, the “IBS symptom of bloating: adequate relief at least 2 out of 4 weeks during weeks 3 through 6 (weekly question)” value (non-constipation IBS; Study 1 / TARGET 1) was 40%, the “Global IBS symptoms: adequate relief at least 2 out of 4 weeks during weeks 3 through 6 (weekly question)” value (non-constipation IBS; Study 1 / TARGET 1, 550 mg TID 14 d) was 41% and 31% vs 41% and the “Responders: abdominal pain reduction of 1 point in weekly mean” value (non-constipation IBS; [4]) was 52%. For the same compound, the “Responders: abdominal pain reduction of 1 point in weekly median” value (non-constipation IBS; [4]) was 63%, the “Responders: abdominal pain reduction of 2 point in mean” value (non-constipation IBS; [4]) was 26% and the “Responders: abdominal pain reduction of 2 point in median” value (non-constipation IBS; [4]) was 37%. For the same compound, the “Responders: abdominal pain reduction of 3 point in mean” value (non-constipation IBS; [4]) was 6% vs 7%, the “Responders: abdominal pain reduction of 3 point in median” value (non-constipation IBS; [4]) was 22% and the “Responders: daily abdominal pain < 2 for at least 50% of days in a week” value (non-constipation IBS; [4]) was 40%. The “Responders: overall reduction of mean weekly abdominal pain by >= 25%” value (non-constipation IBS; [4]) was 56%, the “Responders: overall reduction of mean weekly abdominal pain by >= 50%” value (non-constipation IBS; [4]) was 36% and the “Responders: overall reduction of mean weekly abdominal pain by >= 75%” value (non-constipation IBS; [4]) was 14%. The “Responders: overall reduction of median weekly abdominal pain by >= 25%” value (non-constipation IBS; [4]) was 63%, the “Responders: overall reduction of median weekly abdominal pain by >= 50%” value (non-constipation IBS; [4]) was 44% and the “Responders: overall reduction of median weekly abdominal pain by >= 75%” value (non-constipation IBS; [4]) was 23%. The “Abdominal Pain Responders: %” value (non-constipation IBS; [5]) was 51%, the “Abdominal Pain Responders: n” value (non-constipation IBS; [5]) was 159 and the “Abdominal Pain and Stool Consistency Responders: %” value (non-constipation IBS; [5]) was 47%. For the same compound, the “Abdominal Pain and Stool Consistency Responders: n” value (non-constipation IBS; [5]) was 144, the “Adequate Relief of IBS Symptoms: %” value (non-constipation IBS; [5]) was 41% and the “Adequate Relief of IBS Symptoms: n” value (non-constipation IBS; [5]) was 126. The “Adequate Relief of IBS-Related Bloating: %” value (non-constipation IBS; [5]) was 40%, the “Adequate Relief of IBS-Related Bloating: n” value (non-constipation IBS; [5]) was 122 and the “Stool Consistency Responders: %” value (non-constipation IBS; [5]) was 79%. The “Stool Consistency Responders: n” value (non-constipation IBS; [5]) was 244, the “Monthly responders for abdominal pain (≥30% decrease) and stool consistency (score <4)” value (non-constipation IBS; TARGET 1, ≥2 weeks in month following 2 weeks of treatment) was 47% and the “Most common adverse reactions in IBS-D (≥2%)” value (IBS-D; 550 mg TID) was “nausea and abdominal pain”. For the same compound, the “Adverse reaction Abdominal Pain: % of Patients” value (IBS-D; [6]) was 2%, the “Adverse reaction Abdominal Pain: Number of Patients” value (IBS-D; [6]) was 18 and the “Adverse reaction Nausea: % of Patients” value (IBS-D; [6]) was 2%. The “Adverse reaction Nausea: Number of Patients” value (IBS-D; [6]) was 22.
